Laboratory results from US6486196B2, “Anticancer compounds: process for their preparation and pharmaceutical compositions containing them” (Dr. Reddy's Research Foundation, priority 2000, dated 2002).
Like-named read-outs stand apart in the source and are kept apart here.

Assays:
[1] = system: HIV-1/MN; test: Anti HIV activity in PM-1 cells (P24 ELISA, MTT corrected); format: cell-based; details: 1 μM; PM-1 cells infected with HIV-1/MN, 96 h, P24 antigen corrected by MTT
Protocol: Human CD^4+ T cell line PM-1 used in the assay was cultured in RPMI-1640 medium containing 10% Fetal bovine serum, 2 g/L sodium bicarbonate, 100,000 units/L Pencillin-G and 100 mg/L streptomycin. Healthy PM-1 cells were plated on the first day in a 96 well plate at 2×10^6 cells per well. After 24 h HIV-1/MN was added to the culture and incubated for 2 h for infection. Cells were washed twice with PBS to remove the virus in the culture. Different concentrations of DRF compounds ranging from 10−^4 to 10^−8 M were added to the culture and incubated for 96 h. The viability of cells was then assessed by standard MTT assay and the viral antigen P24 levels were estimated by ELISA method. Based on the MTT assay values the P 24 antigen values were corrected.
All the samples were tested in triplicates and the average was used for calculations. AZT was used as standard compound for comparision.

[2] = system: P388 lymphocytic leukemia; details: P388 cells; cited from earlier work
[3] = system: KB; details: KB cells; cited from earlier work
[4] = system: MCF-7/ADR; test: Sulforhodamine B growth inhibition, breast MCF-7/ADR; format: cell-based, human; details: 48 h, SRB, read-out: GROWTH INHIBITION (GI 50)
Protocol: (§1) Each test compound was screened against a battery of cell lines representing eight different types of cancers. In a typical procedure, 1×10^4 cells were seeded into each well of 96 well plate in 100 μL volume of RPMI 1640 medium containing antibiotics and 10% FCS.
(§2) The plates were incubated at 37° C. in presence of CO2. After 24 h, test compounds were evaluated at five 10 fold dilutions ranging from 100 to 0.01 μM. To each test well 100 μL of test compound solution was added and medium with vehicle was added to control wells and the plates were further incubated. After 48 h of incubation, plates were terminated by Sulforhodamine B method.
(§3) The optical density which is proportional to protein mass, is then read by automated spectrophotometric plate reader at a wavelength of 515 nm.

[5] = system: SKOV-3; test: Sulforhodamine B growth inhibition, ovarian SKOV-3; format: cell-based, human; details: SRB, read-out: GROWTH INHIBITION (GI 50)
Protocol: as §1, §2, §3

[6] = system: SW-620; test: Sulforhodamine B growth inhibition, colon SW-620; format: cell-based, human; details: 48 h, SRB, read-out: GROWTH INHIBITION (GI 50)
Protocol: as §1, §2, §3

[7] = system: PA1; test: Sulforhodamine B growth inhibition, ovarian PA1; format: cell-based, human; details: Homo sapiens, PA-1, 48 h, SRB, read-out: GROWTH INHIBITION (GI 50)
Protocol: as §1, §2, §3

[8] = system: UACC62; test: Sulforhodamine B growth inhibition, melanoma UACC62; format: cell-based, human; details: Homo sapiens, UACC-62, 48 h, SRB, read-out: GROWTH INHIBITION (GI 50)
Protocol: as §1, §2, §3

[9] = system: A498; test: Sulforhodamine B growth inhibition, renal A498; format: cell-based, human; details: 48 h, SRB, read-out: GROWTH INHIBITION (GI 50)
Protocol: as §1, §2, §3

[10] = system: H522; test: Sulforhodamine B growth inhibition, lung H522; format: cell-based, human; details: SRB, read-out: GROWTH INHIBITION (GI 50)
Protocol: as §1, §2, §3

[11] = system: HT29; test: Sulforhodamine B growth inhibition, colon HT29; format: cell-based, human; details: Homo sapiens, HT-29, 48 h, SRB, read-out: GROWTH INHIBITION (GI 50)
Protocol: as §1, §2, §3

[12] = system: U251; test: Sulforhodamine B growth inhibition, CNS U251; format: cell-based, human; details: SRB, read-out: GROWTH INHIBITION (GI 50)
Protocol: as §1, §2, §3

[13] = system: MCF7; test: Sulforhodamine B growth inhibition, breast MCF7; format: cell-based, human; details: Homo sapiens, 48 h, SRB, read-out: GROWTH INHIBITION (GI 50)
Protocol: as §1, §2, §3

[14] = system: DU145; test: Sulforhodamine B growth inhibition, prostate DU145; format: cell-based, human; details: SRB, read-out: GROWTH INHIBITION (GI 50)
Protocol: as §1, §2, §3

[15] = system: ACHN; test: Sulforhodamine B growth inhibition, renal ACHN; format: cell-based; details: Homo sapiens, 48 h, SRB, read-out: GROWTH INHIBITION (GI 50)
Protocol: as §1, §2, §3

[16] = system: PC-3; test: Sulforhodamine B growth inhibition, prostate PC-3; format: cell-based, human; details: Homo sapiens, 48 h, SRB, read-out: GROWTH INHIBITION (GI 50)
Protocol: as §1, §2, §3

[17] = system: M14; test: Sulforhodamine B growth inhibition, melanoma M14; format: cell-based, human; details: 48 h, SRB, read-out: GROWTH INHIBITION (GI 50)
Protocol: as §1, §2, §3

[18] = system: HIV-1 (EIB); details: cited from earlier work

With Cc1cn([C@H]2C[C@H](N=[N+]=[N-])[C@@H](CO)O2)c(=O)[nH]c1=O [AZT, reference compound] the “Percentage Inhibition” value [1] was 72.47%.

In the case of C=C1CC[C@@H]2[C@](C)(CO)[C@H](O)CC[C@@]2(C)[C@@H]1C/C=C1/C(=O)OC[C@H]1O [Andrographolide], the cytotoxic activity [2] is listed as “potent cytotoxic activity” and the cytotoxic activity [3] is listed as “potent cytotoxic activity”.

C=C1CC[C@@H]2[C@]3(C)COC(C)(C)O[C@@H]3CC[C@@]2(C)[C@@H]1C/C=C1/C(=O)OC[C@H]1O [Example 1, 3,19-isopropylidene andrographolide] showed a GI50 ([4]; Homo sapiens, NCI/ADR-RES) of 2 µM, a GI50 ([5]; Homo sapiens, SK-OV-3, 48 h) of 8 µM and a GI50 ([6]; Homo sapiens) of 5 µM. For the same molecule, the GI50 [7] was 2 µM, the GI50 [8] was 4 µM and the GI50 ([9]; Homo sapiens) was 13 µM. It also gave a GI50 ([10]; Homo sapiens, NCI-H522, 48 h) of 14 µM, a GI50 [11] of 2 µM and a GI50 ([12]; Homo sapiens, U-251, 48 h) of 4 µM. The melting point was 194.5 °C and the GI50 [13] was 13 µM.

With C=C1CCC2[C@]3(C)COC(c4ccccc4)O[C@@H]3CC[C@]2(C)[C@H]1C/C=C1/C(=O)OC[C@H]1O (stereo partly drawn) [Example 2, 3,19-Benzylidene andrographolide] the melting point was 142 to 143 °C.

For C=C1CCC2[C@]3(C)COC(C)(c4ccccc4)O[C@@H]3CC[C@]2(C)[C@H]1C/C=C1/C(=O)OC[C@H]1O (stereo partly drawn) [Example 3, 3,19-(1-Phenylethylidene)andrographolide], the GI50 ([4]; Homo sapiens, NCI/ADR-RES) was 2 µM, the GI50 ([5]; Homo sapiens, SK-OV-3, 48 h) was 5 µM and the GI50 ([6]; Homo sapiens) was 5 µM. It also gave a GI50 [7] of 19 µM, a GI50 [8] of 3 µM and a GI50 ([9]; Homo sapiens) of 3 µM. For the same molecule, the GI50 ([10]; Homo sapiens, NCI-H522, 48 h) was 12 µM, the GI50 [11] was 2 µM and the GI50 ([12]; Homo sapiens, U-251, 48 h) was 2 µM. The melting point was 201 to 203 °C and the GI50 [13] was 12 µM.

Molecule C=C1CCC2[C@]3(C)COC(C)(C)O[C@@H]3CC[C@]2(C)[C@H]1C/C=C1/C(=O)OC[C@H]1OC(=O)[C@H](CCSC)NC(=O)OC(C)(C)C (stereo partly drawn) [Example 4, 3,19-isopropylidene-14-(N-Boc-methionyl)andrographolide] has a melting point of 70 °C.

C=C1CCC2[C@](C)(CO)[C@H](O)CC[C@]2(C)[C@H]1C/C=C1/C(=O)OC[C@H]1OC(C)=O (stereo partly drawn) [Example 7, 14-acetyl andrographolide] gave a melting point of 169 °C.

Work on C=C1CCC2[C@](C)(CO)[C@H](O)CC[C@]2(C)[C@H]1C/C=C1/C(=O)OC[C@H]1OC(=O)Nc1ccccc1 (stereo partly drawn) [Example 9, 14-phenylcarbamoyl andrographolide] yielded a GI50 ([14]; Homo sapiens, DU-145, 48 h) of 6 µM, a GI50 ([4]; Homo sapiens, NCI/ADR-RES) of 0.4 µM and a GI50 ([5]; Homo sapiens, SK-OV-3, 48 h) of 3 µM. It also gave a GI50 [15] of 5 µM, a GI50 [16] of 3 µM and a GI50 ([6]; Homo sapiens) of 2.5 µM. For the same molecule, the GI50 [8] was 3 µM, the GI50 ([10]; Homo sapiens, NCI-H522, 48 h) was 12 µM and the GI50 [11] was 4 µM. It also gave a GI50 ([12]; Homo sapiens, U-251, 48 h) of 6.5 µM, a melting point of 120 °C and a GI50 [13] of 2.5 µM.

C=C1CCC2[C@](C)(CO)[C@H](O)CC[C@]2(C)[C@H]1C/C=C1/C(=O)OC[C@H]1OC(=O)NC(C)C (stereo partly drawn) [Example 10, 14-(N-isopropyl)carbamoyl andrographolide] showed a melting point of 122 °C.

With C=C1CCC2[C@](C)(CO)[C@H](O)CC[C@]2(C)[C@H]1C/C=C1/C(=O)OC[C@H]1OC(=O)/C=C/c1ccccc1 (stereo partly drawn) [Example 11, 14-Cinnamoyl andrographolide] the melting point was 77 °C.

C=C1CCC2[C@](C)(CO)[C@H](O)CC[C@]2(C)[C@H]1C/C=C1/C(=O)OC[C@H]1OC(=O)C(C)C (stereo partly drawn) [Example 12, 14-Isopropanoyl andrographolide] gave a melting point of 122.6 °C.

With C=C1CCC2[C@](C)(CO)[C@H](O)CC[C@]2(C)[C@H]1C/C=C1/C(=O)OC[C@H]1OC(=O)C(C)(C)C (stereo partly drawn) [Example 13, 14-Pivaloyl andrographolide] the melting point was 172.7 °C.

Work on C=C1CCC2[C@](C)(CO)[C@H](O)CC[C@]2(C)[C@H]1C/C=C1/C(=O)OC[C@H]1OC(=O)c1ccccc1 (stereo partly drawn) [Example 14, 14-Benzoyl andrographolide] yielded a GI50 ([14]; Homo sapiens, DU-145, 48 h) of 6 µM, a GI50 ([4]; Homo sapiens, NCI/ADR-RES) of 3.5 µM and a GI50 ([5]; Homo sapiens, SK-OV-3, 48 h) of 3.5 µM. It also gave a GI50 [15] of 5 µM, a GI50 [16] of 2 µM and a GI50 ([6]; Homo sapiens) of 3 µM. For the same molecule, the GI50 [8] was 3 µM, the GI50 ([10]; Homo sapiens, NCI-H522, 48 h) was 7.5 µM and the GI50 [11] was 4 µM. It also gave a GI50 ([12]; Homo sapiens, U-251, 48 h) of 1.5 µM, a melting point of 85.5 to 87 °C and a GI50 [13] of 10 µM.

With C=C1CCC2[C@](C)(CO)[C@H](O)CC[C@]2(C)[C@H]1C/C=C1/C(=O)OC[C@H]1OCc1ccccc1 (stereo partly drawn) [Example 15, 14-Benzyl andrographolide] the GI50 ([14]; Homo sapiens, DU-145, 48 h) was 4 µM, the GI50 ([4]; Homo sapiens, NCI/ADR-RES) was 20 µM and the GI50 ([5]; Homo sapiens, SK-OV-3, 48 h) was 3 µM. For the same molecule, the GI50 [15] was 4 µM, the GI50 [16] was 2 µM and the GI50 ([6]; Homo sapiens) was 3.5 µM. It also gave a GI50 [8] of 3.5 µM, a GI50 ([10]; Homo sapiens, NCI-H522, 48 h) of 12 µM and a GI50 [11] of 3.5 µM. It also gave a GI50 ([12]; Homo sapiens, U-251, 48 h) of 40 µM, a melting point of 141 °C and a GI50 [13] of 6 µM.

For C=C1CC[C@@H]2[C@](C)(COC(C)=O)[C@H](OC(C)=O)CC[C@@]2(C)[C@@H]1C/C=C1/C(=O)OC[C@H]1OC(=O)C(O)C(NC(=O)c1ccccc1)c1ccccc1 (stereo partly drawn) [Example 18, 3,19-Diacetyl-14-(2′hydroxy-3′-benzoylamino 3′-phenyl)propionyl andrographolide], the GI50 ([14]; 48 h) was 3 µM, the GI50 [4] was 8 µM and the GI50 ([5]; 48 h) was 4 µM. It also gave a GI50 [17] of 3 µM, a GI50 [6] of 5 µM and a GI50 [9] of 10 µM. The GI50 ([10]; 48 h) was 20 µM and the GI50 ([12]; 48 h) was 8 µM.

Molecule C=C1CCC2[C@](C)(COC(=O)CC)[C@H](OC(=O)CC)CC[C@]2(C)[C@H]1C/C=C1/C(=O)OC[C@H]1OC(=O)CNC(=O)OC(C)(C)C (stereo partly drawn) [Example 20, 14-(N-Boc-glycinyl)-3,19-dipropionyl andrographolide] has a melting point of 65 °C.

For C=C1CC[C@@H]2[C@](C)(COC(C)=O)[C@H](OC(C)=O)CC[C@@]2(C)[C@@H]1C/C=C1/C(=O)OC[C@H]1OC(=O)CNC(C)=O [Example 22, 14-(N-acetyl-glycinyl)-3,19-diacetyl andrographolide], the GI50 ([14]; 48 h) was 8 µM, the GI50 [4] was 8 µM and the GI50 ([5]; 48 h) was 30 µM. For the same molecule, the GI50 [17] was 9.5 µM, the GI50 [6] was 5 µM and the GI50 [9] was 25 µM. For the same molecule, the GI50 ([10]; 48 h) was 20 µM and the GI50 ([12]; 48 h) was 1.5 µM.

For C=C1CCC2[C@](C)(COC(=O)CC)C(OC(=O)CC)CC[C@]2(C)[C@H]1C/C=C1/C(=O)OCC1OC(=O)/C=C/c1ccc(OC)c(OC)c1 (stereo partly drawn) [Example 27, 14-(3,4-dimethoxy)cinnamoyl-3,19-dipropionyl andrographolide], the melting point was 85.4 °C.

In the case of “dehydroandrographolide succinic acid monoester [DASM]”, the “minimal concentration inhibitory to HIV-1 (EIB)” value [18] is given as 1.6 to 3.1 µg/mL.
